Counter-ions that a name gives are not always drawn.
Assays:
Type in all cases: physicochemical
[1] = dynamic water vapor adsorption (DVS) at 60%, 80% and 95% relative humidity; conditions: for gain by mass at 80% relative humidity: 25° C., equilibrium reached; for hygroscopicity classification according to the British Pharmacopoeia, Ed. 2016: based on mass gain at 80% relative humidity
Description: (§1) In all humidity conditions, the equilibrium criterion of mass variation of less than 0.001% was reached.
FIG. 13 presents dynamic water vapor sorption experiments under different humidity conditions for the anhydrous and monohydrate forms of phentermine hydrochloride. It is noted that in all analyzed humidity conditions, the system reached equilibrium, with the monohydrate form being much less hygroscopic than the anhydrous form. Phentermine hydrochloride in anhydrous form has a gain of about 7.5% by mass at 80% relative humidity, being classified as hygroscopic according to the British Pharmacopoeia (BF) (British Pharmacopoeia, Ed. 2016), which can cause dosing problems if the active is manipulated in high humidity conditions. In addition, the fact that the anhydrous form is hygroscopic allows its conversion to the monohydrate form in case of exposure to excessive amounts of water.

[2] = accelerated stability study in oven, 50° C. and 75% relative humidity, 30 days
Experimental: Phentermine hydrochloride monohydrate's stability was tested by keeping 25 g of sample in an oven under conditions of 50° C. and 75% relative humidity for 30 days, as recommended by the FDA guide (Food and Drug Administration, Guidance for Industry Q1A(R2) Stability Testing of New Drug Substances and Products, November 2003 rev.2).

[3] = dynamic water vapor desorption, relative humidity 95% to 0% at 25° C.; conditions: desorption 95% to 0% RH in steps of 5%, 25° C. (FIG. 9)
Experimental: as §1
(§2) The Differential Scanning calorimetry (DSC) experiment (FIG. 8) is performed under an inert atmosphere using nitrogen flow. Therefore, for phentermine hydrochloride monohydrate, such flow favors water loss, and the experiment will have underestimated results.

[4] = DSC heating and X-ray diffraction after heating (conversion of monohydrate to anhydrous form); conditions: 10° C./min, nitrogen flow, XRD after heating at 60° C.
Experimental: (B), when it converts to anhydrous form.
as §2
Furthermore, the melting of the anhydrous form occurs around 200° C. in which the active also starts the decomposition process.

Compound: CC(C)(N)Cc1ccccc1.Cl [2-methyl-1-phenylpropan-2-amine, reference compound]
- gain by mass at 80% relative humidity ([1]; 80% relative humidity): about 7.5 % by mass
- hygroscopicity classification according to the British Pharmacopoeia, Ed. 2016 [1]: hygroscopic

Compound: CC(C)(N)Cc1ccccc1 [Phentermine hydrochloride monohydrate, phentermine hydrochloride monohydrate]
- polymorphic conversion after accelerated stability test (infrared absorption and X-ray diffraction) [2]: no polymorphic conversion
- relative humidity in which the form is stable [3]: higher than 50%
- temperature of conversion to the anhydrous form on heating [4]: above 50 °C
- times less hygroscopic than the anhydrous form ([1]; 80% relative humidity): 10 times
- gain by mass at 80% relative humidity ([1]; 80% relative humidity): about 0.75 % by mass
- hygroscopicity classification according to the British Pharmacopoeia, Ed. 2016 [1]: slightly hygroscopic
